Source: ChEMBL document CHEMBL5316297, “Mechanistic Insight of Synthesized 1,4-Dihydropyridines as an Antidiabetic Sword against Reactive Oxygen Species” (J Med Chem, 2023)
Activity calls are given as the source filed them. The rule behind the calls is not given here.

Assays:
INS1 [1] = test: Induction of apoptosis in rat INS1 cells assessed as late apoptotic cells at 1 uM incubated for 36 hrs by Annexin V-FITC/ propidium iodide staining based flow cytometry analysis (reference value: 0.19%); type: functional
[2] = molecular target: Alpha amylase (Homo sapiens) (UniProt P0DUB6); test: Inhibition of alpha amylase (unknown origin) measured after 20 to 25 mins relative to quercetin; settings: time 20-25 min
[3] = Cytotoxicity against human HCN-1A cells assessed as cell growth inhibition at 10 uM relative to control; type: toxicity, cell-based; settings: read-out: GI
INS1 [4] = test: Induction of apoptosis in rat INS1 cells assessed as total apoptotic cells at 1 uM incubated for 36 hrs by Annexin V-FITC/ propidium iodide staining based flow cytometry analysis (reference value: 0.53%); type: functional
[5] = Cytotoxicity against human WPE1-NA22 cells assessed as cell growth inhibition at 10 uM relative to control; type: toxicity, cell-based; settings: read-out: GI
Alpha amylase = molecular target: T1, Alpha amylase (Homo sapiens, UniProt P0DUB6); test: Inhibition of alpha amylase (unknown origin) measured after 20 to 25 mins
T1 sequence (P0DUB6 whole entry): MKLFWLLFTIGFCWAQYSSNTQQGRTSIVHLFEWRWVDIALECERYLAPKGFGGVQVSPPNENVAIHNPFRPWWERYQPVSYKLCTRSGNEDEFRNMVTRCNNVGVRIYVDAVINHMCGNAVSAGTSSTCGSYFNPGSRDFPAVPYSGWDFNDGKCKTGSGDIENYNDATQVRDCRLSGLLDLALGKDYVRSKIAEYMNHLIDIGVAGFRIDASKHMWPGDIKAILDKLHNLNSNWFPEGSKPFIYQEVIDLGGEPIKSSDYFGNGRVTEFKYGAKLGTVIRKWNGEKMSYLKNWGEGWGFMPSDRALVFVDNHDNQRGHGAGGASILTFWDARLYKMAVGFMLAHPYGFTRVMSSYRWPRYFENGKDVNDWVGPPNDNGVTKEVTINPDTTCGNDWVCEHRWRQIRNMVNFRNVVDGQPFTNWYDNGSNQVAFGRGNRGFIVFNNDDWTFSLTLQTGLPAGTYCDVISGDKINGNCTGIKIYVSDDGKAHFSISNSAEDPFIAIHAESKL

[6] = Acute toxicity in Swiss albino mouse assessed as effect on motor alterations up to 2000 mg/kg, po administered for 14 days; type: organism-based; settings: in vivo, 336 h, time 14 day
[7] = system: voltage dependent L/T-type calcium channel; test: Inhibition of voltage dependent L/T-type calcium channel in human SH-SY5Y cells; settings: SH-SY5Y cells
Dipeptidyl peptidase 4 = Dipeptidyl peptidase 4 (Homo sapiens, UniProt P27487); test: Inhibition of DPP-4 (unknown origin) incubated for 30 mins in presence of substrate by fluorescence based analysis relative to sitagliptin
[8] = molecular target: T2, Sodium/glucose cotransporter 2 (Homo sapiens, UniProt P31639); test: Inhibition of human SGLT2 by liquid scintillation counter analysis
T2 sequence (P31639 whole entry): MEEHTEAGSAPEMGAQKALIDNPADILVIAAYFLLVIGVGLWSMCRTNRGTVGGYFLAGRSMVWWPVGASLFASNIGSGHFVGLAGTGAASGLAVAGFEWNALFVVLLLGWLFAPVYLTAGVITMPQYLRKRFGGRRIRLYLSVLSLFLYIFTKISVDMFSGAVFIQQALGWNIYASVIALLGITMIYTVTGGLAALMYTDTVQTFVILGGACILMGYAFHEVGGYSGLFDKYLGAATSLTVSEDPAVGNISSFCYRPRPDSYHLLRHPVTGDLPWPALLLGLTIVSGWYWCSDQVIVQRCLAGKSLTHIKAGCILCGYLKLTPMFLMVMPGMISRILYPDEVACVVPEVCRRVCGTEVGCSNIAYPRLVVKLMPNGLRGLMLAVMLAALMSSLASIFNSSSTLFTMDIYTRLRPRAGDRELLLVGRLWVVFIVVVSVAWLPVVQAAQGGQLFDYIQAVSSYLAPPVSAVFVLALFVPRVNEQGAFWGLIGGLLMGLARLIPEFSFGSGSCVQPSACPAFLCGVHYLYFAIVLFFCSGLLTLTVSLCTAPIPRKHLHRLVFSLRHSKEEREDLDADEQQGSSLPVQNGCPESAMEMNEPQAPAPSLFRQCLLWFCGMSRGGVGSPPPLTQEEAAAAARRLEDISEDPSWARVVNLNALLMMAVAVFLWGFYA

[9] = Half life in Swiss albino mouse plasma at 0.2 mmol/Kg, po measured after 24 hrs by HPLC analysis; type: ADME, organism-based
Mus musculus [10] = test: Antidiabetic activity against high fat diet-STZ-induced diabetic Swiss albino mouse model assessed as insulin resistance by measuring serum IL6 level at 0.2 mmol/Kg/day, po administered for 14 days by ELISA method (reference value: 39.30+/-4.14 pg/ml); type: functional; settings: time 14 day
[11] = molecular target: T3, Sodium/glucose cotransporter 2 (Homo sapiens) (UniProt P31639); test: Inhibition of human SGLT2 by liquid scintillation counter analysis relative to canagliflozin; settings: concentration not given here
T3 sequence (whole entry): T2 sequence (P31639 whole entry)

[12] = AUC in Swiss albino mouse plasma at 0.2 mmol/Kg, po measured after 24 hrs by HPLC analysis; type: ADME, organism-based; set-up: dose 0.2 mmol/Kg, time 24 hrs, route po; settings: in vivo
Mus musculus [13] = test: Antidiabetic activity against high fat diet-STZ-induced diabetic Swiss albino mouse model assessed as increase in appearance of insulin immunopositive areas in pancreatic sections at 0.2 mmol/kg/day, po administered for 14 days by […] based analysis; type: functional, organism-based; settings: time 14.0 day
[14] = molecular target: voltage dependent L-type calcium channel (Rattus norvegicus, UniProt P22002+P27732+Q02485); test: Inhibition of voltage dependent L-type calcium channel in rat A7R5 cells
Mus musculus [15] = test: Antidiabetic activity against high fat diet-STZ-induced diabetic Swiss albino mouse model assessed as induction of beta cell regeneration in pancreas at 0.2 mmol/kg/day, po administered for 14 days by haematoxylin and eosin staining based analysis; type: functional, organism-based; settings: Pancreatic beta cell, time 14.0 day
Mus musculus [16] = test: Antioxidant activity against high fat diet-STZ-induced diabetic Swiss albino mouse model assessed as serum catalase level at 0.2 mmol/Kg/day, po administered for 14 days (reference value: 378.22+/- 14.45 U/ml); type: functional; settings: time 14 day
[17] = Cytotoxicity against HEK293 cells assessed as cell growth inhibition at 10 uM relative to control; type: toxicity, cell-based; settings: human, read-out: GI
Mus musculus [18] = test: Antidiabetic activity against high fat diet-STZ-induced diabetic Swiss albino mouse model assessed as insulin resistance by measuring serum TNFalpha level at 0.2 mmol/Kg/day, po administered for 14 days by ELISA method (reference value: 376.50+/-14.50 ng/ml); type: functional; settings: time 14 day
[19] = Cytotoxicity against human MCF-10F cells assessed as cell growth inhibition at 10 uM relative to control; type: toxicity, cell-based; settings: read-out: GI
[20] = Cytotoxicity against human HCN-1A cells assessed as cell growth inhibition; type: toxicity, cell-based
[21] = Acute toxicity in Swiss albino mouse assessed as effect on mortality up to 2000 mg/kg, po administered for 14 days; type: organism-based; settings: in vivo, 336 h, time 14 day
[22] = Cytotoxicity against human MRC5 cells assessed as cell growth inhibition; type: toxicity, cell-based
[23] = Tmax in Swiss albino mouse plasma at 0.2 mmol/Kg, po measured after 24 hrs by HPLC analysis; type: ADME, organism-based

Dipeptidyl peptidase 4, sequence (P27487 whole entry, looked up): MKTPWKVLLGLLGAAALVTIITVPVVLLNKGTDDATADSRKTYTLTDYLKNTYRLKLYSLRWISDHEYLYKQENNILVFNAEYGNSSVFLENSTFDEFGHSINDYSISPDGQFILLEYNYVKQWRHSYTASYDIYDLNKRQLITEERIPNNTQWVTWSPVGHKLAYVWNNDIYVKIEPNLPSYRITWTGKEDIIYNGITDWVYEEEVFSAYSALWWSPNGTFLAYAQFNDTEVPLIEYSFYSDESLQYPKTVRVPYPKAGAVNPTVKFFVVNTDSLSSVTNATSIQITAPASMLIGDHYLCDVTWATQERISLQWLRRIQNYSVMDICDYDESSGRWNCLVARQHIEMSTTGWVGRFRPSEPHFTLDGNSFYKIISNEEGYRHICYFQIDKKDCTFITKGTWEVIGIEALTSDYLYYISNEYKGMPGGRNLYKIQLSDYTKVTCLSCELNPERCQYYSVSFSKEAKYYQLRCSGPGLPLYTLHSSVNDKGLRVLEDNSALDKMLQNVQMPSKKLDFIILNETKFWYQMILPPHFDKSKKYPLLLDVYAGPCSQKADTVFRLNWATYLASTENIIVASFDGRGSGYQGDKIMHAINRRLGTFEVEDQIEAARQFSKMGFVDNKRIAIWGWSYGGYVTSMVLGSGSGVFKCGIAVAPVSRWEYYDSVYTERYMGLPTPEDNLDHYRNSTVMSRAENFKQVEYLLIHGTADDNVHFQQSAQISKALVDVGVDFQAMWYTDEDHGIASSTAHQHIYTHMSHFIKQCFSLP

**Q.** For `CCOC(=O)C1=C(C)NC(C)=C(C(=O)OCC)C1c1cccc2c1OCO2`, which Activity (INS1 [1]) is on record?
**A.** 0.15%

**Q.** And the inhibition [2]?
**A.** 47%

**Q.** What about the inhibition at 10 µM [3] of the same molecule?
**A.** 33.1%

**Q.** What about the Activity (INS1 [4]) of the same molecule?
**A.** 0.42%

**Q.** And the inhibition at 10 µM [5]?
**A.** 26.4%

**Q.** What about the IC50 (Alpha amylase) of the same molecule?
**A.** 17.32 µM

**Q.** What about the Activity [6] of the same molecule?
**A.** Non-Toxic

**Q.** And the IC50 [7]?
**A.** 16.5 µM

**Q.** What about the inhibition (Dipeptidyl peptidase 4) of the same molecule?
**A.** < 1%

**Q.** What about the IC50 [8] of the same molecule?
**A.** 411 µM

**Q.** What about the half-life [9] of the same molecule?
**A.** 1.9 h

**Q.** What about the Activity (Mus musculus [10]) of the same molecule?
**A.** 96.07 pg/mL

**Q.** And the inhibition [11]?
**A.** < 1%

**Q.** What about the AUC [12] of the same molecule?
**A.** 36.7 ng·h/mL

**Q.** What about the Activity (Mus musculus [13]) of the same molecule?
**A.** Active

**Q.** What about the IC50 [14] of the same molecule?
**A.** 12.6 µM

**Q.** And the Activity (Mus musculus [15])?
**A.** Active

**Q.** And the Activity (Mus musculus [16])?
**A.** 271.11 U/ml

**Q.** What about the inhibition at 10 µM [17] of the same molecule?
**A.** 41.3%

**Q.** And the Activity (Mus musculus [18])?
**A.** 415.5 ng/mL

**Q.** What about the inhibition at 10 µM [19] of the same molecule?
**A.** 28.7%

**Q.** And the GI50 [20]?
**A.** 28.7 µM

**Q.** What about the Activity [21] of the same molecule?
**A.** Non-Toxic

**Q.** What about the GI50 [22] of the same molecule?
**A.** 61.8 µM

**Q.** What about the Tmax [23] of the same molecule?
**A.** 0.8 h
